US11022604B2, “Dock derived compound against laminin receptor (37 LR) and uses thereof” (Purdue Research Foundation, priority 2017, dated 2021)
Where two headings read alike, the source gives them in different places.

Experiments:
Type in all cases: cell-based
[1] = tested on: PC-3 androgen independent metastatic prostate cancer cells; test: Cell viability screen (CCK-8), PC-3 cells; details: CCK-8, 96 hours, read-out: IC50, inhibition of cell viability
Procedure: FIGS. 2A-2H. Dose response curves. Does response curves for cell lines treated with 6, 10.5, 18.6, 32.4, 57.5 and 100 μM of compound (log) for 96 hours using % cell viability derived from CCK-8 absorbance readings at 450 nm (n=3, mean±SEM). A DMSO equivalent control (n=2±SEM) was also included for each cell line tested: Ea.hy.926 endothelial cells (Endo), LNCaP androgen dependent metastatic prostate cancer cells, TC2-Ras mouse prostate cancer cells, PC-3 androgen independent metastatic prostate cancer cells, and SH-SY5Y neruoblastoma cells. […]
Cell Viability Screen. […] Cell viability was measured by using the cell counting kit-8 (CCK-8, Dojindo). […] CCK-8 absorbance was measured at 450 nm using a GloMax Multimode Reader (Promega). Readings were performed the day after seeding to normalize for variations in cell seeding and after 96 hours of compound treatment. After each reading, CCK-8 media was removed and replaced with media containing compound as described previously. […] As described previously, an initial baseline CCK-8 reading was performed at 24 hours post seeding to correct for variations in seeding density. First, 450 nm values for each well were subtracted from media only readings to correct for baseline absorbance. Then, the 96 hour readings were normalized to their respective 24 hour readings to control for seeding variation. […]

[2] = tested on: PC-3 cells; test: RT-qPCR of PEDF-signaling associated genes; details: PC-3, 50 μM, 48 hours
Procedure: Expression of PEDF-signaling associated genes from PC-3 cells treated with 50 μM C3, compared to DMSO control and normalized to GAPDH (n=3, mean±SEM). A Holm-Sidak multiple t test was used for statistical analysis (*p<0.05,**O<0.01, ***<0.001). […] Average tube count for 0.1% DMSO, 0.5% DMSO, and 1, 10 and 50 μM treatment with C3 (n=7, mean±SEM). 1 and 10 μM C3 were compared with respective 0.5% DMSO (unpaired two-tailed t test, ****<0.0001). 50 μM C3 was compared with respective 0.1% DMSO (unpaired two-tailed t test p<0.0001).
RT-qPCR. PC-3 cells were seeded in 6 well plates at 3×10^5 cells per well and incubated with 50 μM C3 or DMSO equivalent in 1×RPMI-1640, 1× anti-anti, and 2% FBS (ThermoFisher) for 48 hours. PC-3 cells were lifted using 20 mM EDTA in 1×DPBS and pelleted before isolating total RNA using the RNeasy Mini Kit (Qiagen). 1 μg of RNA per sample was reverse transcribed using the amfiRivert cDNA synthesis master mix (GenDEPOT). Real-time PCR wells contained 1 μL cDNA template, 2×SYBR Green Master Mix (Applied Biosystems), and 20 μM forward and reverse primers. Primer sequences are provided in Table 2. qRT-PCR was performed on an Eppendorf Realplex 2S (Eppendorf), using: 40×95° C. for 3 mins; 95° C. for 3 s; 60° C. for 30 s; 72° C. for 8 s and analyzed using EP Realplex software (version 2.2). Fold changes were normalized to GAPDH using the ddCT method.
Genes involved in migration/invasion and/or extracellular matrix (ECM) communication also were assayed.

[3] = tested on: PC3 prostate cancer cell line; test: Cell Titer Glo cell viability assay; details: Homo sapiens, PC-3, PC3 cells
Text: In this series of cell viability experiments, we used the highly sensitive Cell Titer Glo reagents from Promega in PC3 prostate cancer cell line. We compared the parental compound C3 effect on reducing cell viability with the best derivative compound, DBG-02-09.

IC50 [1]: ~1000 nM | IC50 ([1]; Homo sapiens, PC-3, 96 h): ~800 nM | IC50 [3]: 16.7 ± 7.6 µM
Compound: O=C(c1cc(F)cc2c1OCOC2)N1CCN(C2c3ccccc3-c3ccccc32)CC1 [Compound C3, [4-(9h-fluoren-9-yl)piperazino](6-fluoro-4h-1,3-benzodioxin-8-yl)methanone]
VEGF mRNA, fold change [2]: ~4 FC | VEGFR2 transcription, fold change [2]: > −15 fold change | thrombospondin-1 (THBS1) mRNA, fold change [2]: > 10 FC
